Data as given in US9993538B2, “Peptide vaccine therapy for treatment of FRα-expressing tumors” (Galena Biopharma, Inc., priority 2015, dated 2018).
No end group written: not given here.

Experiments:
[1] = test system: tumor-associated lymphocyte (TAL); settings: cited from earlier work
[2] = Booster study: local reactions (LR) 48-72 hours after each booster, safety; assay type: in vivo, human; settings: 500 mcg peptide + 250 mcg GM-CSF booster
Text: Booster inoculations of peptide vaccines may improve disease-free survival (DFS) (e.g., U.S. Pat. No. 8,222,214), but repeated boosting can theoretically lead to overstimulation and loss of vaccine-induced T cells. Therefore, to assess the use of the attenuated E39′ peptide as a booster, E39-vaccinated patients described in Example 1 were randomized to receive either E39 or E39′ as a booster to determine the effect on long-term E39-specific immunity. Patients in the VG received six intradermal E39 injections as described in Example 1 as a primary vaccination schedule (PVS). […]
Local reactions (LR) were recorded 48-72 hours after each booster. Immune response was determined by measurement of E39 specific CTL levels using a Dextramer reagents in accordance with the manufacturer's instructions (Immudex Limited, Copenhagen, Denmark) as previously described (e.g., Tario et al. Cytometry B Clin. Cytom. 2015; 88B:6-20; Baba J. Transl Med. 2010; 8:84), at R0 (baseline pre-vaccination), RC1(1 month after completion of PVS), RC6 (6 months after completion of PVS and before booster), RC7 (1 month after booster) and RC12 (6 months after booster and 12 months after completion of PVS). Demographic, safety, immunological, and DFS data were collected and evaluated.

[3] = parameters: species or system human; settings: in vivo
Text: Eligible patients were identified with endometrial, ovarian, fallopian tube or peritoneal cancer and were disease-free after standard of care therapies. Patients were surgically or naturally post-menopausal. Exclusion criteria included patients currently receiving immunosuppressive therapy to include chemotherapy, steroids or methotrexate, poor health (ECOG […]), evidence of end-organ dysfunction, pregnancy, breast feeding, history of autoimmune disease, and involvement in other experimental protocols (except with permission of the principal investigator of the other study). […]
The E39 peptide (FBP 191-199, EIWTHSYKV) was produced commercially by an FDA-compliant production facility for patient use. […] This dose (250 mcg) of GM-CSF has been previously determined to be a safe and effective dose, based on our prior work with NeuVax^6. […]
The phase I portion of this trial consisted of dose escalation to determine a safe and effective dose of the E39 peptide. […] Prior to the fourth inoculation, each patient was assessed for liver, renal, and hematopoietic dysfunction. […]
Standard local and systemic toxicities were collected and graded per the National Cancer Institute Common Terminology Criteria for Adverse Events, v4.03 toxicity scale. […] Systemic toxicity and inoculation site local reactions were also determined after 48-72 hours.

For “E41: FRα-derived immunogenic peptide E41 (FRα 245-253) (LLSLALMLL; UniProt P15328 245-253, looked up, fragment)”, the “effect on TAL proliferation and anti-tumor function” value [1] is given as “capable of enhancing tumor-associated lymphocyte (TAL) proliferation and anti-tumor function”.

In the case of EIWTFSTKV [E39′, EIWTFSTKV], the safety of booster [2] is reported as “safe”.

In the case of EIWTHSYKV [E39, EIWTHSYKV], the “patients experiencing grade 3 toxicity” value [3] is reported as 1 patient.
